Measurements published in patent US20230114728A1 (Venatorx Pharmaceuticals, Inc., priority 2019, published 2023).
Values after ≈ are worked out from the molar mass of the structure shown. Like-named read-outs stand apart in the source and are kept apart here.

Assays:
[1] = target: T1, P. aeruginosa PBP3 (Pseudomonas aeruginosa, UniProt G3XD46); test: Bocillin-FL fluorescence polarization competition binding assay, P. aeruginosa PBP3; settings: fluorescence polarization competition binding assay using Bocillin-FL
T1 construct: made in house
T1 sequence (G3XD46 whole entry): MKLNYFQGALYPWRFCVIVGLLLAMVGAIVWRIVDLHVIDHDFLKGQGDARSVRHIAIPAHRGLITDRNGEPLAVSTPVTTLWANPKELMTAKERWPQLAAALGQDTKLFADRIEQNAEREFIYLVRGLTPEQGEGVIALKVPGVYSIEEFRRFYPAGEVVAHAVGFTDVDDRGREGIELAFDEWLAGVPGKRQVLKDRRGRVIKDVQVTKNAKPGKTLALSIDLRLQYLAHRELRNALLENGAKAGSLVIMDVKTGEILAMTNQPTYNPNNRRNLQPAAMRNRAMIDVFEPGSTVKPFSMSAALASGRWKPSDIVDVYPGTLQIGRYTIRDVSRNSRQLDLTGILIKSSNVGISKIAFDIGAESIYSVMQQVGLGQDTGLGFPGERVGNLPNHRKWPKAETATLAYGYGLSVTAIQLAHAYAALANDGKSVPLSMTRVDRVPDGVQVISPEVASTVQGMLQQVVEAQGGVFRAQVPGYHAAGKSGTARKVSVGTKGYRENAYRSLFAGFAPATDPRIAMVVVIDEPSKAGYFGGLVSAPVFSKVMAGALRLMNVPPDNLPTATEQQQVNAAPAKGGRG
Excerpt: (§1) Example I: Experimental Method for Penicillin-Binding Protein Binding Assays with Bocillin-FL Via Fluorescence Polarization
(§2) To determine the ability of boronic acid-based test PBP inhibitors to bind Penicillin Binding Proteins (PBPs), Bocillin-FL (fluorescently-labeled penicillin V; ThermoFisher Scientific) was used in a fluorescence polarization (FP) competition binding assay to assess inhibitor binding to PBP2, PBP3 or PBP4 from Escherichia coli (K12), PBP3 from Pseudomonas aeruginosa (PA01), PBP1a, PBP2 and PBP3 from Acinetobacter baumannii (ATCC 19606), and PBP2 from Neiserria gonorrheae (FA19). PBPs were cloned and purified as described previously (E. coli PBPs, King, D. T, et al., ACS Infectious Diseases 2015, 1, 175-184; P. aeruginosa PBP3, Han et. al., PNAS 2010, 107 (51), 22002-22007; A. baumannii PBPs, Penwell et. al., Antimicrob. Agents Chemother. 2015, 59 (3), 1680-1689; N. gonorrhoeae PBP2, Singh et. al., J Biol. Chem. 2019, 294 (38), 14020-14032). To establish assay conditions for competition binding, enzyme titration/saturation binding experiments were initially performed. Bocillin-FL was prepared at 0.2 μM in a buffer comprised of 50 mM Hepes (pH 8.0), 300 mM NaCl and 5% (v/v) glycerol for reactions with E. coli, P. aeruginosa and N. gonorrhoeae PBPs, and 25 mM Tris (pH 8.0), 200 mM NaCl and 10% (v/v) glycerol and 0.005% (v/v) Tween 20 for reactions with A. baumannii PBPs. Saturation binding was performed by mixing 40 μl of PBP solutions ranging in concentrations from 0-24 μM with 40 μl of the 0.2 μM Bocillin-FL solution, in individual wells of a black 384-well microplate. FP was measured immediately upon mixing (Excitation, 490 nm; Emission, 520 nm; g-factor, 0.96), using a Cytation3 (BioTek) microplate reader and measured continuously for up to 120 minutes. […] The competition binding assay (80 μl final volume) was validated using beta-lactams and PBPs at final concentrations of: 1.5 μM, E. coli PBP3; 0.75 μM, P. aeruginosa PBP3; 1 μM A. baumannii PBP1a; 2.5 μM A. baumannii PBP2; 0.2 μM A. baumannii PBP3; and […] N. gonorrhoeae PBP2. Bocillin-FL was at 0.1 μM (0.05 μM with A. baumannii PBP1a) and beta-lactam concentrations ranged from 0-1000 μM. […] Bocillin-FL was added and the FP immediately measured for up to 60 minutes (90 minutes for E. coli PBP2). […] The beta-lactam potency was reported as the concentration of beta-lactam required to reduce the amount of PBP bound-Bocillin-FL by 50% (EC50). […] Binding assays for boronic acid PBP inhibitors were performed in an identical fashion for the respective PBPs

[2] = system: P. aeruginosa ATCC 35151; test: Broth microdilution MIC in CAMHB; assay type: cell-based; settings: Pseudomonas aeruginosa, ATCC35151; MHB; hyper-permeable strain; read-out: Minimum Inhibitory Concentration, P. aeruginosa ATCC 35151
Description: (§3) Example III: In Vitro Antibacterial Assays
(§4) To determine the ability of test compounds to inhibit the growth of bacterial strains, classic cell based broth microdilution minimum inhibitory concentration (MIC) assays were employed. MIC assays are performed according to CLSI methods except where otherwise noted (CLSI, 2018 and CLSI, 2019). The reference type strain E. coli ATCC 25922; the wild-type parent strain E. coli AG100; the hyper-permeable E. coli 901C and E. coli D22; and the E. coli AG100A strain lacking the acrAB efflux pump encoding genes were used to determine the ability of the PBP inhibitors to penetrate the outer membrane of gram-negative bacteria and inhibit bacterial growth. […] The P. aeruginosa ATCC 27853 and A. baumannii ATCC 19606, along with the hyper-permeable P. aeruginosa ATCC 35151 and an engineered efflux pump-compromised strain of P. aeruginosa (ΔmexAB-oprM) were used to determine the ability of PBP inhibitors to penetrate the outer membrane of P. aeruginosa and A. baumannii and assess antibacterial activity against these important gram-negative organisms.
(§5) Briefly, cryo-preserved bacterial cultures of challenge strains are streaked for isolation on appropriate agar medium, in this case cation-adjusted Mueller Hinton agar. Following incubation to allow growth of the colonies, plates are sealed with parafilm and stored refrigerated for up to two weeks. For preparation of assay inoculum and to ensure low variability, at least 5 colonies are picked from the agar plates with an inoculating loop and aseptically transferred to a culture tube containing 3 mL of cation-adjusted Mueller Hinton broth (CAMHB). The broth culture is grown for 3-5 hours at 37° C. with shaking at 200 rpm. Meanwhile, 2-fold serial dilutions of test compounds are conducted in a 96-well plate with a final volume of 75 μL per well at 2-fold the final desired concentration. After the dilution plates are set up the growing cultures are then diluted in a cuvette containing CAMHB and the optical density is measured at 600 nm. The inoculum is diluted such that 75 μL of this culture in CAMHB results in a starting bacterial concentration of 2-8×10^5 CFU/mL when added to the dilution plates. The plates are incubated for 16-20 hours for Enterobacteriaceae and Pseudomonas and 20-24 hours for Acinetobacter at 37° C. The MIC values are read visually as the lowest concentration well with no bacterial growth.

[3] = system: P. aeruginosa (ΔmexAB-oprM); test: Broth microdilution MIC in CAMHB; assay type: cell-based; settings: Pseudomonas aeruginosa, read-out: Minimum Inhibitory Concentration, P. aeruginosa ΔmexAB-OprM
Description: as §3, §4, §5

[4] = system: K. pneumoniae UMM producing SHV-5 and KPC-2; test: Broth microdilution MIC in CAMHB; assay type: cell-based; settings: Klebsiella pneumoniae, read-out: Minimum Inhibitory Concentration, K. pneumoniae UMM
Description: as §3, §4, §5

[5] = system: E. coli AG100; test: Broth microdilution MIC in CAMHB; assay type: cell-based; settings: Escherichia coli, MHB, read-out: Minimum Inhibitory Concentration, E. coli AG100
Description: as §3, §4, §5

[6] = system: E. coli 901C; test: Broth microdilution MIC in CAMHB; assay type: cell-based; settings: Escherichia coli, MHB, read-out: Minimum Inhibitory Concentration, E. coli 901C
Description: as §3, §4, §5

[7] = system: E. coli ATCC 25922; test: Broth microdilution MIC in CAMHB; assay type: cell-based
Description: as §3, §4, §5

[8] = system: E. coli AG100A; test: Broth microdilution MIC in CAMHB; assay type: cell-based; settings: Escherichia coli, read-out: Minimum Inhibitory Concentration, E. coli AG100A
Description: as §3, §4, §5

[9] = system: P. aeruginosa ATCC 27853; test: Broth microdilution MIC in CAMHB; assay type: cell-based; settings: Pseudomonas aeruginosa, ATCC27853; MHB; read-out: Minimum Inhibitory Concentration, P. aeruginosa ATCC 27853
Description: as §3, §4, §5

[10] = system: K. pneumoniae 848844 producing SHV-11 and KPC-2; test: Broth microdilution MIC in CAMHB; assay type: cell-based; settings: Klebsiella pneumoniae, read-out: Minimum Inhibitory Concentration, K. pneumoniae 848844
Description: as §3, §4, §5

[11] = system: E. coli D22; test: Broth microdilution MIC in CAMHB; assay type: cell-based; settings: Escherichia coli, MHB, read-out: Minimum Inhibitory Concentration, E. coli D22
Description: as §3, §4, §5

[12] = system: A. baumannii ATCC 19606; test: Broth microdilution MIC in CAMHB; assay type: cell-based; settings: Acinetobacter baumannii, ATCC19606; MHB; read-out: Minimum Inhibitory Concentration, A. baumannii ATCC 19606
Description: as §3, §4, §5

[13] = system: K. pneumoniae SI-117 producing VIM-1; test: Broth microdilution MIC in CAMHB; assay type: cell-based; settings: Klebsiella pneumoniae, read-out: Minimum Inhibitory Concentration, K. pneumoniae SI-117
Description: as §3, §4, §5

[14] = target: T2, E. coli K12 PBP3 (Escherichia coli, UniProt P0AD68); test: biochemical; assay type: binding
T2 construct: made in house
T2 sequence (P0AD68 1-577): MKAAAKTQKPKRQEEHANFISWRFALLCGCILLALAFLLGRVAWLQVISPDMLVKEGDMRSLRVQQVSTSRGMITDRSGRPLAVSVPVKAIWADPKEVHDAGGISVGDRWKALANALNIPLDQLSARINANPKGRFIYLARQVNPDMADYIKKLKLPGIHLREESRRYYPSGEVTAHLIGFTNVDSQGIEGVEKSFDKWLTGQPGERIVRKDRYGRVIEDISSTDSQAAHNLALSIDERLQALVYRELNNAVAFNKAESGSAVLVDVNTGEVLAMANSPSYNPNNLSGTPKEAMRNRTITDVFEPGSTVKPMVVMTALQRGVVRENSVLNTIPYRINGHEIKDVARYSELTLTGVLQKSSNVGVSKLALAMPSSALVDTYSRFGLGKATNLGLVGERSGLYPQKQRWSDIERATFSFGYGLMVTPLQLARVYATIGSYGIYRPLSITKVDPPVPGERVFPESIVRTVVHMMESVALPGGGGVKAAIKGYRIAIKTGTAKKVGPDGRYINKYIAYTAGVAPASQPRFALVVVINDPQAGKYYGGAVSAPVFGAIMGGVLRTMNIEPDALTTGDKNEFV
Excerpt: as §1, §2

[15] = wild-type parent strain E. coli AG100
[16] = Escherichia coli, ATCC25922; MHB; E. coli ATCC 25922; read-out: Minimum Inhibitory Concentration, E. coli 25922

| SMILES | P. aeruginosa PBP3 Potency [1] | MIC [2] | MIC [3] | MIC [4] | MIC ([5]; E. coli AG100 (wild-type parent)) | MIC ([6]; E. coli 901C (hyper-permeable)) | MIC ([7]; Escherichia coli, ATCC25922; E. coli ATCC 25922; MHB; read-out: Minimum Inhibitory Concentration, E. coli 25922) | MIC [8] | MIC [9] | MIC [10] | MIC ([11]; E. coli D22 (hyper-permeable)) | MIC [12] | MIC [13] | MIC [5, 15] | MIC ([6]; hyper-permeable E. coli 901C) | MIC [7, 16] | MIC ([11]; hyper-permeable E. coli D22) | EC50 [14] |
| --- | --- | --- | --- | --- | --- | --- | --- | --- | --- | --- | --- | --- | --- | --- | --- | --- | --- | --- |
| CCN1CCN(C(=O)N[C@H](C(=O)N[C@H]2Cc3cccc(C(=O)O)c3OB2O)c2ccc(C(=O)O)c(Cl)c2F)C(=O)C1=O (single isomer, unassigned) [Example 221] | C (C represents a potency between 10 and 30 μM) | 2 to 4 µg/mL (≈ 3.31 to 6.61 µM) | 32 to 64 µg/mL (≈ 52.9 to 106 µM) | 0.5 to 1 µg/mL (≈ 0.827 to 1.65 µM) | > 128 µg/mL | > 128 µg/mL | 32 to 64 µg/mL (≈ 52.9 to 106 µM) | > 128 µg/mL | > 128 µg/mL | > 128 µg/mL | > 128 µg/mL | > 128 µg/mL | 8 to 16 µg/mL (≈ 13.2 to 26.5 µM) |  |  |  |  |  |
| CCN1CCN(C(=O)N[C@@H](C(=O)N[C@H]2Cc3cccc(C(=O)O)c3OB2O)c2ccc(C(=O)O)c(Cl)c2F)C(=O)C1=O (single isomer, unassigned) [Example 222] | D (D represents a potency <10 μM) | 0.5 to 1 µg/mL (≈ 0.827 to 1.65 µM) | 32 to 64 µg/mL (≈ 52.9 to 106 µM) | < 0.25 µg/mL |  |  |  | > 128 µg/mL | > 128 µg/mL | > 128 µg/mL |  | > 128 µg/mL | 2 to 4 µg/mL (≈ 3.31 to 6.61 µM) | > 128 µg/mL | > 128 µg/mL | 32 to 64 µg/mL (≈ 52.9 to 106 µM) | > 128 µg/mL |  |
| NCCN1CCCN(C(=O)N[C@H](C(=O)N[C@H]2Cc3cccc(C(=O)O)c3OB2O)c2c(F)cc(O)cc2F)C1=O (single isomer, unassigned) [Example 231] |  | 8 to 16 µg/mL (≈ 14.3 to 28.5 µM) | > 128 µg/mL | 32 to 64 µg/mL (≈ 57 to 114 µM) |  |  |  | > 128 µg/mL | > 128 µg/mL | > 128 µg/mL |  | > 128 µg/mL | > 128 µg/mL | > 128 µg/mL | > 128 µg/mL | > 128 µg/mL | > 128 µg/mL | 30 to 500 µM |
| NC1(CN2CCN(C(=O)N[C@@H](C(=O)N[C@H]3Cc4cccc(C(=O)O)c4OB3O)c3ccc(O)c(F)c3F)C(=O)C2=O)CC1 (single isomer, unassigned) [Example 236] |  | < 0.25 µg/mL | 2 to 4 µg/mL (≈ 3.33 to 6.65 µM) | 0.5 to 1 µg/mL (≈ 0.831 to 1.66 µM) |  |  |  | 32 to 64 µg/mL (≈ 53.2 to 106 µM) | > 128 µg/mL | 32 to 64 µg/mL (≈ 53.2 to 106 µM) |  | > 128 µg/mL | 2 to 4 µg/mL (≈ 3.33 to 6.65 µM) | 32 to 64 µg/mL (≈ 53.2 to 106 µM) | 32 to 64 µg/mL (≈ 53.2 to 106 µM) | 32 to 64 µg/mL (≈ 53.2 to 106 µM) | 32 to 64 µg/mL (≈ 53.2 to 106 µM) | < 30 µM |
| NC1(CN2CCN(C(=O)N[C@H](C(=O)N[C@H]3Cc4cccc(C(=O)O)c4OB3O)c3ccc(O)c(F)c3F)C(=O)C2=O)CC1 (single isomer, unassigned) [Example 237] |  | 0.5 to 1 µg/mL (≈ 0.831 to 1.66 µM) | 8 to 16 µg/mL (≈ 13.3 to 26.6 µM) | 2 to 4 µg/mL (≈ 3.33 to 6.65 µM) |  |  |  | > 128 µg/mL | > 128 µg/mL | > 128 µg/mL |  | > 128 µg/mL | 32 to 64 µg/mL (≈ 53.2 to 106 µM) | > 128 µg/mL | > 128 µg/mL | > 128 µg/mL | > 128 µg/mL | 30 to 500 µM |
| O=C(O)c1cccc2c1OB(O)[C@@H](NC(=O)C(NC(=O)N1CCN(CCF)C(=O)C1=O)c1ccc(O)c(F)c1F)C2 (stereo partly drawn) [Example 235, (3R)-3-(2-(2,3-difluoro-4-hydroxyphenyl)-2-(4-(2-fluoroethyl)-2,3-dioxopiperazine-1-carboxamido)acetamido)-2-hydroxy-3,4-dihydro-2H-benzo[e][1,2]oxaborinine-8-carboxylic acid] |  | 0.5 to 1 µg/mL (≈ 0.865 to 1.73 µM) | 8 to 16 µg/mL (≈ 13.8 to 27.7 µM) | < 0.25 µg/mL |  |  |  | 32 to 64 µg/mL (≈ 55.3 to 111 µM) | > 128 µg/mL | 32 to 64 µg/mL (≈ 55.3 to 111 µM) |  | > 128 µg/mL | 2 to 4 µg/mL (≈ 3.46 to 6.92 µM) | 32 to 64 µg/mL (≈ 55.3 to 111 µM) | 32 to 64 µg/mL (≈ 55.3 to 111 µM) | 8 to 16 µg/mL (≈ 13.8 to 27.7 µM) | 32 to 64 µg/mL (≈ 55.3 to 111 µM) | < 30 µM |
